Results reported in ChEMBL document CHEMBL5465560, “Selectivity Literature for EUbOPEN Chemogenomic Library” (2024).

Tests used:
[1] = biological target: T1, Serine/threonine-protein kinase TAO3 (Homo sapiens) (UniProt Q9H2K8); test: Selectivity interaction (KinomeScan (DiscoverX)) EUB0001079a TAOK3; conditions: at 1 µM
T1 sequence (whole entry): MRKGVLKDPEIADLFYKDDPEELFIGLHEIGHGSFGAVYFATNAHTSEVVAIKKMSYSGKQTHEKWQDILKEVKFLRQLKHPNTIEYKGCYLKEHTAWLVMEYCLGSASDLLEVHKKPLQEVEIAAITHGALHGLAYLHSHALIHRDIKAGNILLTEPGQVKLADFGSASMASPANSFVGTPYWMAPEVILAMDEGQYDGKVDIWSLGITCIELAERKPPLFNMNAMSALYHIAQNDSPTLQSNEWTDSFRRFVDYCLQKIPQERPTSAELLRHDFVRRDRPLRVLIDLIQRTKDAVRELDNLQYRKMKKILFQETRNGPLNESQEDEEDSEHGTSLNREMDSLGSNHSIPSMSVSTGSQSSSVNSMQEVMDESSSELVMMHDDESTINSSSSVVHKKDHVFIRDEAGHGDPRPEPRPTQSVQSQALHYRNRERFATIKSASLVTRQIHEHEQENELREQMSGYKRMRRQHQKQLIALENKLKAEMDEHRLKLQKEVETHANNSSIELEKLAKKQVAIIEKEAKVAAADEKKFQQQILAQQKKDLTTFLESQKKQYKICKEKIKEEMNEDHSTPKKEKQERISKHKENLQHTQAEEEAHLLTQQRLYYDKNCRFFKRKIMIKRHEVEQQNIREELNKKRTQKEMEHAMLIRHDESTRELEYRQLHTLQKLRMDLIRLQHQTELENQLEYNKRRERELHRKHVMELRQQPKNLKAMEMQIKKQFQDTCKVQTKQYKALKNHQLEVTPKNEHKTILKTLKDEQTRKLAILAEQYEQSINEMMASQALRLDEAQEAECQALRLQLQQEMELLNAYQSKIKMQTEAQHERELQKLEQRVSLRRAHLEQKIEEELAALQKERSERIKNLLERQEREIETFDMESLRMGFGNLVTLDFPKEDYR

Aurora kinase B = Aurora kinase B (Homo sapiens, UniProt Q96GD4); test: Selectivity interaction (Enyzmatic assay) EUB0000601a AURKB
[2] = biological target: T2, Serine/threonine-protein kinase DCLK3 (Homo sapiens) (UniProt Q9C098); test: Selectivity interaction (KinomeScan (DiscoverX)) EUB0000618a DCLK3; conditions: at 10 µM
T2 sequence (whole entry): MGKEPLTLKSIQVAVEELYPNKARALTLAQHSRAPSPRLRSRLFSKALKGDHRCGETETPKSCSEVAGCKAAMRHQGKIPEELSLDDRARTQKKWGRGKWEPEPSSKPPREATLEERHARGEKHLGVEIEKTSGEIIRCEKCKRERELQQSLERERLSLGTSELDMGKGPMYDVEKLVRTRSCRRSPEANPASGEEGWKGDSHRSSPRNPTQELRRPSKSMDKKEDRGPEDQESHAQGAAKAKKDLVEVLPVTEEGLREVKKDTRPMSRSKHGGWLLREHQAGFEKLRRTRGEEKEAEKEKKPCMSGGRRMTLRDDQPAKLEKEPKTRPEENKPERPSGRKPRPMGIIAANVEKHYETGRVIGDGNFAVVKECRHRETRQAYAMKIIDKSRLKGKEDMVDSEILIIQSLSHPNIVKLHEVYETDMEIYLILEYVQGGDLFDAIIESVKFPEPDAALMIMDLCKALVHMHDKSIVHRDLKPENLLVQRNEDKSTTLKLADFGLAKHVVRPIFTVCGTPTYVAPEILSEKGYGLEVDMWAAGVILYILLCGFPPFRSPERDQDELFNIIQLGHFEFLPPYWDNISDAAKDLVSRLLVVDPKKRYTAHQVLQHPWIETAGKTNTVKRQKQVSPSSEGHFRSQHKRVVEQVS

[3] = Selectivity interaction (Ambit KINOMEscan and KiNATiv profiling in Jurkat cells) EUB0000090b PKNB; conditions: Selectivity number of off-targets 9; Selectivity number of targets 456; Source Knowledge https://www.nature.com/articles/nchembio.2166; at 1 µM

Chain of Aurora kinase B (Q96GD4 whole entry): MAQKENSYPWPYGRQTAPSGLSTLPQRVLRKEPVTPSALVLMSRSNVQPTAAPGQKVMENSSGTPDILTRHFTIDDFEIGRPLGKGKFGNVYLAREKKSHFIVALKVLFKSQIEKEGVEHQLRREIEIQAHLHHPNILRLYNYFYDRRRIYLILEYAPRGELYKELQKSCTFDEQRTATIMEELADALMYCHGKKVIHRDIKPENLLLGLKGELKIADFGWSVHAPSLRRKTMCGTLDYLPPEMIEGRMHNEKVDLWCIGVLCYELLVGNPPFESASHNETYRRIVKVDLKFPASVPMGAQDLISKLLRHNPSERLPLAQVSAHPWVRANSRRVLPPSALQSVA

Compound: Nc1cnc(N2CCc3cc(S(=O)(=O)Nc4c(F)cc(Cl)cc4F)cc(N4CCCC4=O)c32)nc1 [TP-020n]
- % of control [1]: 70%

Compound: CCc1cc(Nc2nccc(-c3c(-c4ccc(OC)c(C(=O)Nc5c(F)cccc5F)c4)nc4ccccn34)n2)c(OC)cc1N1CCC(N2CCN(S(C)(=O)=O)CC2)CC1
- IC50 (Aurora kinase B): > 4 µM

Compound: O[C@H]1CC[C@H](Nc2ncc3nc(Nc4c(F)cc(F)cc4F)n([C@H]4CCOC4)c3n2)CC1
- % of control [2]: 98%

Compound: CN(C)C/C=C/C(=O)Nc1ccc(C(=O)N2CCCC(Nc3ncc(Cl)c(-c4c[nH]c5ccccc45)n3)C2)cc1 (centres undefined)
- % of control [3]: 38%
